In publication PMC5035790 (Annals of Oncology, 2016):
Marks after values point to notes of the source that are not given here.

Columns and labels:
p110α = conditions: read-out: IC50 p110α; cited from earlier work
p110γ = conditions: read-out: IC50 p110γ; cited from earlier work
[1] = Plasma pharmacokinetics of copanlisib; type: in vivo, human
[2] = cycle 1 day 1, NHL expansion, 0.8 mg/kg, n=9, value (range)
[3] = cycle 1 day 1, diabetic expansion, 0.4 mg/kg, n=6, value (range)
[4] = cycle 1 day 1, solid tumors expansion, 0.8 mg/kg, n=25, value (range)

For `COc1c(OCCCN2CCOCC2)ccc2c1N=C(NC(=O)c1cnc(N)nc1)N1CCN=C21` [copanlisib, Copanlisib], the IC50 (p110α) is given as 0.5 nM, the IC50 (p110γ) is given as 6.4 nM and the “coefficients of variation of Cmax and AUC(0–25)” value ([1]; 0.1 to 1.2 mg/kg) is given as 30–50%. For the same compound, the “inter-patient variability of AUC” value ([1]; MTD 0.8 mg/kg) was 47%, the terminal half-life ([1]; MTD 0.8 mg/kg, coefficient of variation 43%) was ~38 h and the “Cmax levels of unbound copanlisib” value ([1]; at the MTD) was ~150 nM. The “dose dependence of Cmax and AUC(0–25)” value ([1]; between 0.1 and 1.2 mg/kg) was “dose-proportionally”, the tlast ([1]; cycle 1 day 1, MTD 0.8 mg/kg combined, n=7, value (range)) was 142.5 (25.0–194.2)^e h and the Tmax ([1]; cycle 1 day 1, MTD 0.8 mg/kg combined, n=34, value (range)) was 1.0 (0.5–3.0)^d h. The Tmax [1, 2] was 1.0 (0.5–1.0) h, the tlast [1, 2] was 167.0 (47.3–191.9) h and the tlast ([1]; cycle 1 day 1, cohort 1, 0.1 mg/kg, n=1, individual data) was 48.6 h. The tlast ([1]; cycle 1 day 1, cohort 2, 0.2 mg/kg, n=3, value (range)) was 48.4 (25.0–49.0) h, the tlast ([1]; cycle 1 day 1, cohort 3, 0.4 mg/kg, n=2, range) was 167.8 to 170.2 h and the tlast ([1]; cycle 1 day 1, cohort 4, 0.8 mg/kg, n=7, value (range)) was 142.5 (25.0–192.0) h. For the same compound, the tlast ([1]; cycle 1 day 1, cohort 5, 1.2 mg/kg, n=2, range) was 29.3–167.2^b,c h, the Tmax [1, 3] was 1.0 (1.0–1.2) h and the tlast [1, 3] was 49.0 (48.9–167.4) h. For the same compound, the Tmax [1, 4] was 1.0 (0.5–3.0) h, the tlast [1, 4] was 118.5 (46.4–194.2) h and the Tmax ([1]; cycle 1 day 15, MTD 0.8 mg/kg combined, n=36, value (range)) was 1.0 (0.5–1.3)^m h. The Tmax ([1]; cycle 1 day 15, solid tumors expansion, 0.8 mg/kg, n=22, value (range)) was 1.0 (0.5–1.3)^l h, the “accumulation after once-weekly administration” value ([1]; days 1 and 15) was “no accumulation” and the concentration at 1 week ([1]; human, blood, intravenous, 0.8 mg/kg) was 1.6 nM. It also gave an AUC(0-t) ([1]; human, plasma, intravenous, 0.1 mg/kg, AUC(0–25), cycle 1 day 1, cohort 1, 0.1 mg/kg, n=1, individual data) of 170 ng·h/mL, an AUC(0-t) ([1]; human, plasma, intravenous, 0.1 mg/kg, AUC(0–25), cycle 1 day 15, cohort 1, 0.1 mg/kg, n=1, individual data) of 175 ng·h/mL and an AUC(0-t) ([1]; human, plasma, intravenous, 0.1 mg/kg, AUC(0–tlast), cycle 1 day 1, cohort 1, 0.1 mg/kg, n=1, individual data) of 254 ng·h/mL. It also gave a Cmax ([1]; human, plasma, intravenous, 0.1 mg/kg, cycle 1 day 1, cohort 1, 0.1 mg/kg, n=1, individual data) of 32.9 ng/mL, a Cmax ([1]; human, plasma, intravenous, 0.1 mg/kg, cycle 1 day 15, cohort 1, 0.1 mg/kg, n=1, individual data) of 37.6 ng/mL and a Tmax ([1]; human, plasma, intravenous, 0.1 mg/kg, tmax, cycle 1 day 1, cohort 1, 0.1 mg/kg, n=1, individual data) of 0.5 h. For the same compound, the Tmax ([1]; human, plasma, intravenous, 0.2 mg/kg) was 1 h, the AUC(0-t) ([1]; human, plasma, intravenous, 0.2 mg/kg, AUC(0–25), cycle 1 day 1, cohort 2, 0.2 mg/kg, n=3, geometric mean (%CV)) was 384 ng·h/mL and the AUC(0-t) ([1]; human, plasma, intravenous, 0.2 mg/kg, AUC(0–25), cycle 1 day 15, cohort 2, 0.2 mg/kg, n=3, geometric mean (%CV)) was 453 ng·h/mL. For the same compound, the AUC(0-t) ([1]; human, plasma, intravenous, 0.2 mg/kg, AUC(0–tlast), cycle 1 day 1, cohort 2, 0.2 mg/kg, n=3, geometric mean (%CV)) was 472 ng·h/mL, the Cmax ([1]; human, plasma, intravenous, 0.2 mg/kg, cycle 1 day 1, cohort 2, 0.2 mg/kg, n=3, geometric mean (%CV)) was 79.8 ng/mL and the Cmax ([1]; human, plasma, intravenous, 0.2 mg/kg, cycle 1 day 15, cohort 2, 0.2 mg/kg, n=3, geometric mean (%CV)) was 89.4 ng/mL. The Tmax ([1]; human, plasma, intravenous, 0.2 mg/kg, tmax, cycle 1 day 1, cohort 2, 0.2 mg/kg, n=3, value (range)) was 1.1 h, the Tmax ([1]; human, plasma, intravenous, 0.4 mg/kg) was 1 h and the AUC(0-t) ([1]; human, plasma, intravenous, 0.4 mg/kg, AUC(0–25), cycle 1 day 1, cohort 3, 0.4 mg/kg, n=2, range) was 348 to 556 ng·h/mL. It also gave an AUC(0-t) ([1]; human, plasma, intravenous, 0.4 mg/kg, AUC(0–25), cycle 1 day 1, diabetic expansion, 0.4 mg/kg, n=6, geometric mean (%CV)) of 607 ng·h/mL, an AUC(0-t) ([1]; human, plasma, intravenous, 0.4 mg/kg, AUC(0–25), cycle 1 day 15, cohort 3, 0.4 mg/kg, n=2, range) of 324 to 803 ng·h/mL and an AUC(0-t) ([1]; human, plasma, intravenous, 0.4 mg/kg, AUC(0–25), cycle 1 day 15, diabetic expansion, 0.4 mg/kg, n=6, geometric mean (%CV)) of 687 ng·h/mL. For the same compound, the AUC(0-t) ([1]; human, plasma, intravenous, 0.4 mg/kg, AUC(0–tlast), cycle 1 day 1, cohort 3, 0.4 mg/kg, n=2, range) was 722 to 1450 ng·h/mL, the AUC(0-t) ([1]; human, plasma, intravenous, 0.4 mg/kg, AUC(0–tlast), cycle 1 day 1, diabetic expansion, 0.4 mg/kg, n=6, geometric mean (%CV)) was 1070 ng·h/mL and the Cmax ([1]; human, plasma, intravenous, 0.4 mg/kg, cycle 1 day 1, cohort 3, 0.4 mg/kg, n=2, range) was 143 to 144 ng/mL. It also gave a Cmax ([1]; human, plasma, intravenous, 0.4 mg/kg, cycle 1 day 1, diabetic expansion, 0.4 mg/kg, n=6, geometric mean (%CV)) of 138 ng/mL and a Cmax ([1]; human, plasma, intravenous, 0.4 mg/kg, cycle 1 day 15, cohort 3, 0.4 mg/kg, n=2, range) of 70.1 to 193 ng/mL.
